What was measured:
DU145 cell line [1] = assay: Cell viability / cell growth, MTT assay; format: cell-based, human; conditions: DU145, 0-40 mM, compared to control
Protocol: DU145 (human HRPC cell line, derived from a patient with brain metastasis) and PrEC (human normal prostate epithelial cell line) cell lines were obtained from Korea Cell Line Bank (KCLB, Seoul, South Korea). DU145 and PrEC cell lines were grown in triplicate culture plates containing RPMI-1640 (HyClone, Logan, Utah, USA) and Dulbecco's Modified Eagle's Medium (HyClone, Logan, Utah, USA) respectively, and kept in a humidified atmosphere containing 5% CO2 at 37° C. for 72 h. The media were supplemented with 10% heat-inactivated fetal bovine serum (HyClone, Logan, Utah, USA), 1% antibio-antimicotic solution containing 10,000 units/ml of penicillin and 10 mg/ml of streptomycin (HyClone, Logan, Utah, USA), HEPES, sodium bicarbonate, p-aminobenzoic acid and insulin (complete culture media). D-Allose was purchased from Sigma (St. Louis, Mo., USA) and dissolved at a concentration of 1 M in sterile phosphate-buffered saline (PBS), and was further sterilized by filtration. To examine the dose- and time-dependent effects, the cell lines (70-80% confluent) were treated with 0-40 mM of D-allose for up to 72 h, whereas without D-allose treated cell lines (0 mM) were considered as control. DU145 cell line was also treated with 0-40 mM of D-glucose. All the other chemicals used in the work were procured from Sigma (St. Louis, Mo., USA), unless otherwise specified.
The logarithmic growth phase of DU145 and PrEC cell lines were taken for growth assay using 3-[4,5-dimethylthiazol-2-yl]-2,5-diphenyl tetrazolium bromide (MTT). […] After incubation for the specified time at 37° C. in a humidified 5% CO2 incubator, cell viability was determined. […] To achieve solubilization of formazan crystal formed in viable cells, DMSO was added to each well, and the absorbance was recorded on a microplate reader at 595 nm wavelength. The effect of sugars on growth inhibition was assessed as percent cell viability where control cells were taken as 100% viable.

DU145 cell line [2] = assay: Apoptotic indices by DAPI staining, confocal microscopy; format: cell-based, human; conditions: DU145, 24, 48 and 72 h
Protocol: The Annexin-V-FLUOS Staining Kit (Roche Diagnostics GmbH, Mannheim, Germany) was used for the detection and quantification of the apoptotic cells. This kit uses a dual-staining protocol in which the apoptotic cells are stained with annexin-V (green fluorescence) and the necrotic cells are stained with propidium iodide (PI, red fluorescence). Briefly, DU145 cell line was grown at a density of 1×10^6 cells in triplicate culture plates and then treated with D-allose (0, 20 and 40 mM) for 48 and 72 h. The cells were treated with trypsin and harvested with PBS and processed for labeling with annexin-V and PI by the use of the kit according to the manufacturer's protocol. The fluorescence was measured by flow cytometric analysis, performed on a FACSCalibur (Becton Dickinson, San Jose, Calif., USA) using 488 nm excitation and a 515 nm band pass filter for fluorescein detection and a filter [600 nm for PI detection (FL1: Annexin-V-FLUOS; FL2: PI). Further, apoptotic indices were measured by analysis of fragmented or scattered nuclei and condensed chromosome as the stringent morphological criteria of apoptosis, detectable by confocal microscopy on cells stained with DNA-intercalating dye […] (DAPI). For this purpose, DU145 and PrEC cell lines were exposed to 0, 20 and 40 mM of D-allose for up to 72 h, stained with DAPI (1 μg/ml in methanol), mounted with Prolong Antifade reagent (Molecular Probes, Eugene, Oreg., USA), and images were acquired by use of a confocal laser scanning microscope (Fluoview FV 1000, Olympus, Japan). The numbers of apoptotic nuclei per 100 cells were counted from the five high power fields/slide and apoptotic indices were expressed as a percentage of the untreated controls in each cell line, considering the value as 100%. DU145 cell line was also treated with 0-40 mM of D-glucose for determination of apoptotic indices as mentioned above.

O=C[C@H](O)[C@@H](O)[C@H](O)[C@H](O)CO [D-glucose, reference compound]
cell growth (MTT assay) (DU145 cell line [1]): significant increase of cell growth in a dose-dependent manner
programmed cell death (apoptotic indices, DAPI staining) (DU145 cell line [2]): no remarkable effect
